Experimental findings from patent publication US11572590B2, “Methods for evaluating tumor cell spheroids using 3D microfluidic cell culture device” (Dana-Farber Cancer Institute, Inc., priority 2017, dated 2023) are described below.

The test system of experiment [1] is CT26 MDOTS. As to the kind of experiment: Bead-based cytokine profiling of CT26 MDOTS. Type of experiment: cell-based, murine. Particulars: Cmpd1 (1 μM) ± anti-PD-1 (10 μg/mL). As to the method:
(§1) Fresh tumor specimens (murine and human patients) were received in media (DMEM) on ice and minced in a 10 cm dish (on ice) using sterile forceps and scalpel. Minced tumor was resuspended in DMEM ([…], […] sodium pyruvate, 1:100 penicillin-streptomycin) (Corning CellGro, Manassas, Va.) +10% FBS (Gemini Bio-Products, West Sacramento, Calif.), 100 U/mL collagenase type IV (Life Technologies, Carlsbad, Calif.), and 15 mM HEPES (Life Technologies, Carlsbad, Calif.), except for CT26 tumors that were prepared in RPMI. Samples were pelleted and resuspended in 10-20 mL media. Red blood cells were removed from visibly bloody samples using RBC Lysis Buffer (Boston Bio-Products, Ashland, Mass.). […]
(§2) Two multiplex assays were performed utilizing a bead-based immunoassay approach, the Bio-Plex Pro™ Human Cytokine 40-plex Assay (Cat #171AK99MR2) and Bio-Plex Pro™ Mouse Cytokine Panel 1, 23-plex (Cat #M60009RDPD) on a Bio-plex 200 system (Cat #171000201). […] Fold changes relative to the MDOT/PDOT control were calculated and plotted as log 2FC. Lower and upper limits of quantitation (LLOQ/ULOQ) were imputed from standard curves for cytokines above or below detection. […]

For experiment [2], the target named is off-target kinases (Homo sapiens, UniProt P36888). Briefly: SelectScreen Kinase Profiling, single point inhibition and IC50 for off-target kinases. It is filed as biochemical. The arrangement: other: FLT3 ITD; 1000 μM. As to conditions: FLT3 ITD; 1000 μM; LanthaScreen Binding. As to the method:
Biochemical single point inhibition and IC50 concentrations for TBK1, IKKε (IKBKE), and off-target kinases were determined at ThermoFisher Scientific using SelectScreen Kinase Profiling Services (Madison, Wis., USA) (Tables S4A and S4B-1-7). To determine cellular potency, the human colorectal cancer carcinoma cell line HCT116 (ATCC, Manassas, Va.) was maintained in T175 flasks in complete RPMI medium; RPMI 1640 supplemented with 10% FBS, 1× Penicillin-Streptomycin solution and 1×MEM (non-essential amino acids). HCT116 cells were grown to 90-95% confluency in T175 flasks containing complete RPMI medium and transfected in bulk using Lipofectamine 2000 (Invitrogen, Carlsbad, Calif.) with 70 μg of ISG54-luciferase reporter plasmid (Elim Biopharmaceuticals Inc., Hayward, Calif.). The reporter plasmid contains a luciferase gene expression cassette under the transcriptional regulation of the promoter of the human interferon stimulated gene 54 (ISG54). Transfection of the cells was allowed to take place for 6 hours, after which the cells were harvested by treatment with 0.25% trypsin EDTA (Corning Inc., Corning, N.Y.). Trypsinized cells were added to 384-well poly-d-lysine treated black clear bottom tissue culture assay plates (Greiner Bio-One GmbH, Kremsmünster, Austria) at a density of 20,000 cells/well in 80 μL of complete RPMI medium and incubated overnight. After 16-18 hours post-transfection, the assay plates were washed with PBS (Corning Inc., Corning, N.Y.), followed by addition of 80 μL/well of serum-free RPMI 1640 medium containing 1× Penicillin-Streptomycin solution, 1×MEM and 350 nL of DMSO or titrations of Compound 1. […] The assay plates were incubated for 5 hours at 37° C., followed by addition of One-Glo luciferase firefly reagent (Promega, Madison, Wis.) at 1:1 volume/well and luminescence was measured in an EnVision Multilabel Plate Reader (PerkinElmer, Santa Clara, Calif.). The EC50 values were calculated from the fit of the dose-response curves to a four-parameter equation. […]
(In general: In TR-FRET formats the signal depends on donor and acceptor labels being close together.)

Experiment [3] has as its system CT26 spheroids (lacking immune cells). Briefly: Bead-based cytokine profiling of CT26 spheroids lacking immune cells. As to conditions: Day 1, 3, and 6. Type of experiment: cell-based, murine. As to the method:
as §1, §2

For `N#Cc1cc(-c2ncnc(Nc3ccc(N4CCN(C5COC5)CC4)cc3)n2)ccc1OC1CCOCC1` [Compound 1, 5-(4-((4-(4-(oxetan-3-yl)piperazin-1-yl)phenyl)amino)-1,3,5-triazin-2-yl)-2-((tetrahydro-2H-pyran-4-yl)oxy)benzonitrile], in experiment [1], the “cytokines involved in activated innate immune responses (e.g., G-CSF) in CT26 MDOTS” value was “concomitant induction”; the “levels of CCL4, CCL3, and IL-1β in CT26 MDOTS” value is “Decreased levels”. Also, in experiment [2], the “% Inhibition 1” value is 64%, the “% Inhibition 2” value is given as 62% and the “% Inhibition Avg” value came to 63%. Further, the “immune suppressive cytokine elaboration by CT26 cell line spheroids” value in experiment [3] is listed as “effectively blocked”.
